According to ChEMBL document CHEMBL1151563, “Synthesis of sialic acid-lipid conjugates and their neuritogenic effects on N1E.115 neuroblastoma cells” (1995):

Columns and labels:
N1E-115 [1] = assay: In neutral red (NR) assay the cell number relative to control was determined at 3 uM; value ranges from 65-75; assay type: functional, Mus musculus
N1E-115 [2] = assay: Effect of compound on neurite outgrowth by measuring presence of cytoskeletal component in neurofilament (NF) ELISA assay at 1 uM; value ranges from 95-105; assay type: functional, Mus musculus
N1E-115 [3] = assay: Neuritogenic activity of compound was determined at 3 uM; value ranges from 105-115; assay type: functional, Mus musculus
[4] = NF/NR ratio is average amount of neurofilament per cell was determined at 1 uM; value ranges from 95-105; assay type: functional
N1E-115 [5] = assay: In neutral red (NR) assay the cell number relative to control was determined at 1 uM; value ranges from 95-105; assay type: functional, Mus musculus
N1E-115 [6] = assay: Effect of compound on neurite outgrowth by measuring presence of cytoskeletal component in neurofilament (NF) ELISA assay at 3 uM; value ranges from 75-85; assay type: functional, Mus musculus
N1E-115 [7] = assay: Neuritogenic activity of compound was determined at 1 uM; value ranges from 95-105; assay type: functional, Mus musculus
[8] = NF/NR ratio is average amount of neurofilament per cell was determined at 3 uM; value ranges from 105-115; assay type: functional
N1E-115 [9] = assay: Effect of compound on neurite outgrowth by measuring presence of cytoskeletal component in neurofilament (NF) ELISA assay at 3 uM; value ranges from 95-105; assay type: functional, Mus musculus
N1E-115 [10] = assay: In neutral red (NR) assay the cell number relative to control was determined at 3 uM; value ranges from 75-85; assay type: functional, Mus musculus
N1E-115 [11] = assay: Neuritogenic activity of compound was determined at 1 uM; value ranges from 105-115; assay type: functional, Mus musculus
N1E-115 [12] = assay: Neuritogenic activity of compound was determined at 3 uM; value ranges from 115-125; assay type: functional, Mus musculus
[13] = NF/NR ratio is average amount of neurofilament per cell was determined at 3 uM; value ranges from 115-125; assay type: functional
[14] = NF/NR ratio is average amount of neurofilament per cell was determined at 1 uM; value ranges from 105-115; assay type: functional
N1E-115 [15] = assay: In neutral red (NR) assay the cell number relative to control was determined at 1 uM; value ranges from 75-85; assay type: functional, Mus musculus
N1E-115 [16] = assay: Neuritogenic activity of compound was determined at 3 uM; value ranges from 125-135; assay type: functional, Mus musculus
[17] = NF/NR ratio is average amount of neurofilament per cell was determined at 3 uM; value ranges from 125-135; assay type: functional
[18] = NF/NR ratio is average amount of neurofilament per cell was determined at 3 uM; value ranges from 95-105; assay type: functional
N1E-115 [19] = assay: Neuritogenic activity of compound was determined at 3 uM; value ranges from 95-105; assay type: functional, Mus musculus

| SMILES | Activity (N1E-115 [1]) [%] | Activity (N1E-115 [2]) [%] | Activity (N1E-115 [3]) [%] | Ratio [4] | Activity (N1E-115 [5]) [%] | Activity (N1E-115 [6]) [%] | Activity (N1E-115 [7]) [%] | Ratio [8] | Activity (N1E-115 [9]) [%] | Activity (N1E-115 [10]) [%] | Activity (N1E-115 [11]) [%] | Activity (N1E-115 [12]) [%] | Ratio [13] | Ratio [14] | Activity (N1E-115 [15]) [%] | Activity (N1E-115 [16]) [%] | Ratio [17] | Ratio [18] | Activity (N1E-115 [19]) [%] |
| --- | --- | --- | --- | --- | --- | --- | --- | --- | --- | --- | --- | --- | --- | --- | --- | --- | --- | --- | --- |
| CC(=O)NC1C(O)CC(OC2CC[C@@]3(C)C(=CCC4[C@@H]5CC[C@H]([C@@H](C)CCCC(C)C)[C@@]5(C)CC[C@@H]43)C2)(C(=O)[O-])OC1[C@@H](O)[C@H](O)CO.[Na+] (some centres undefined) | 65 | 95 | 105 | 95 | 95 | 75 | 95 | 105 | – | – | – | – | – | – | – | – | – | – | – |
| CCCCCCCCCCCCCCCCOCOCCCO[C@]1(C(=O)O)C[C@@H](O)[C@@H](NC(C)=O)C([C@@H](O)[C@H](O)CO)O1 (some centres undefined) | – | 95 | 105 | 95 | 95 | – | 95 | 105 | 95 | – | – | – | – | – | – | – | – | – | – |
| CC(=O)NC1C(O)CC(OCCCOCOC2CC[C@@]3(C)C(=CCC4[C@@H]5CC[C@H]([C@@H](C)CCCC(C)C)[C@@]5(C)CC[C@@H]43)C2)(C(=O)[O-])OC1[C@@H](O)[C@H](O)CO.[Na+] (some centres undefined) | – | 95 | – | – | – | – | – | – | 95 | 75 | 105 | 115 | 115 | 105 | 75 | – | – | – | – |
| CCCCCCCCCCCCCCCCOC1(C(=O)[O-])CC(O)C(NC(C)=O)C([C@@H](O)[C@H](O)CO)O1.[Na+] (some centres undefined) | – | 95 | 105 | – | – | – | – | 105 | 95 | 75 | 105 | – | – | 105 | 75 | – | – | – | – |
| CC(=O)NC1C(O)CC(OCCCOCOCC(COCOCCCOC2(C(=O)[O-])CC(O)C(NC(C)=O)C([C@@H](O)[C@H](O)CO)O2)(COCOCCCOC2(C(=O)[O-])CC(O)C(NC(C)=O)C([C@@H](O)[C@H](O)CO)O2)CO[C@H]2CCC3(C)C(=CCC4[C@@H]3CCC3(C)[C@@H](C(C)CCCC(C)C)CC[C@@H]43)C2)(C(=O)[O-])OC1[C@@H](O)[C@H](O)CO.[Na+].[Na+].[Na+] (some centres undefined) | – | 95 | – | – | – | – | – | – | 95 | 85 | 105 | – | – | 105 | – | 125 | 125 | – | – |
| CC(C)CCC[C@@H](C)[C@H]1CCC2C3CC=C4CC(C(C(=O)O)C(=O)O)CC[C@]4(C)C3CC[C@@]21C (some centres undefined) | – | 95 | – | 95 | – | – | 95 | – | 95 | – | – | – | – | – | – | – | – | 95 | 95 |
